Test results: PMC4669789, “Selective inhibition of HDAC8 decreases neuroblastoma growth in vitro and in vivo and enhances retinoic acid-mediated differentiation” (Cell Death & Disease, 2015)
Several values for one entry are separate records, joined by “and”; a condition that tells them apart may be missing. Identical values can stand only once.

Key:
BE(2)-C cells = experiment: Western blot of histone 4, α-tubulin and SMC3 acetylation; type: cell-based, human
Protocol: Western blot analysis was performed as described previously.[15] For detection of phosphoproteins, PhosStop (Roche, Penzberg, Germany) was added to the lysis buffer.

HDAC5 = HDAC5 (Homo sapiens, UniProt Q9UQL6); experiment: In vitro HDAC activity assay (Reaction Biology); type: biochemical; conditions: cell-free; read-out: IC50 values of HDAC8 inhibitors, HDAC5
HDAC5, sequence (Q9UQL6 684-1028 limits assumed): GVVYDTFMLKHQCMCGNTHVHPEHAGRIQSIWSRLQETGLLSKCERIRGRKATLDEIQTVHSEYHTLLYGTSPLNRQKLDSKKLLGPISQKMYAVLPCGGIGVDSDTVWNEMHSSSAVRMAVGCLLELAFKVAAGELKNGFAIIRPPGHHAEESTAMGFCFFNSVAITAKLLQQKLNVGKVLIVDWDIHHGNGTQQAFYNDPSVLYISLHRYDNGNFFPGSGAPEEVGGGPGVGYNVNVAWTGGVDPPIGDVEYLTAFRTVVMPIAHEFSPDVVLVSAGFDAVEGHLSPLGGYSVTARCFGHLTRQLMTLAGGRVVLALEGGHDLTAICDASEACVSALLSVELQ
Protocol: (§1) Peptide substrate was conjugated with AMC. […] The HDAC reaction was performed at 30 °C for 2 h before adding the developer reagent. The free AMC was detected with excitation of 360 nm and emission 460 nm at kinetic mode for 90 min. IC50 values were calculated with GraphPad Prism version 3.0a (GraphPad Software Inc., San Diego, CA, USA).

HDAC2 = HDAC2 (Homo sapiens, UniProt Q92769); experiment: In vitro HDAC activity assay (Reaction Biology); type: biochemical; conditions: cell-free; read-out: IC50 values of HDAC8 inhibitors, HDAC2
HDAC2, sequence (Q92769 9-322 limits assumed): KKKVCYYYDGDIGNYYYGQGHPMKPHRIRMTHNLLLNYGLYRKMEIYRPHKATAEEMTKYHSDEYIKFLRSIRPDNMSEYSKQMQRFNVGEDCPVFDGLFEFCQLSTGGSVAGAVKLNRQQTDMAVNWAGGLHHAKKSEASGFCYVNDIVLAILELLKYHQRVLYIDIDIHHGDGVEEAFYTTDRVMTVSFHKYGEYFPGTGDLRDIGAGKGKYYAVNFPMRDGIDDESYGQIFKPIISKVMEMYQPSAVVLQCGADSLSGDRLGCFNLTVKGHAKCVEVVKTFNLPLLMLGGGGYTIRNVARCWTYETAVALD
Protocol: as §1

HDAC4 = HDAC4 (Homo sapiens, UniProt P56524); experiment: In vitro HDAC activity assay (Reaction Biology); type: biochemical; conditions: cell-free; read-out: IC50 values of HDAC8 inhibitors, HDAC4
HDAC4, sequence (P56524 655-1084 limits assumed): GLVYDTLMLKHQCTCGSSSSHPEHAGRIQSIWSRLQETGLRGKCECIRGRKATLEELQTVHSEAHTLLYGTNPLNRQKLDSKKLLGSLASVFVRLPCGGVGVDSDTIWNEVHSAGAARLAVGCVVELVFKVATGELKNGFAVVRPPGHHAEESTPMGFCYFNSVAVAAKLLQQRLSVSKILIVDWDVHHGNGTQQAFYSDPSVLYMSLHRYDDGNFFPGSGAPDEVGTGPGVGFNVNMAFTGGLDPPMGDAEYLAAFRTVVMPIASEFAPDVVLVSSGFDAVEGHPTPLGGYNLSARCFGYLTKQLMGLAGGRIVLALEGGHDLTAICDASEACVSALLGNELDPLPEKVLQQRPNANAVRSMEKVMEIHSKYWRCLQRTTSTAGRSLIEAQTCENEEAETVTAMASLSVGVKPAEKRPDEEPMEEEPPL
Protocol: as §1

HDAC9 = HDAC9 (Homo sapiens, UniProt Q9UKV0); experiment: In vitro HDAC activity assay (Reaction Biology); type: biochemical; conditions: cell-free; read-out: IC50 values of HDAC8 inhibitors, HDAC9
HDAC9, sequence (Q9UKV0 631-978 limits assumed): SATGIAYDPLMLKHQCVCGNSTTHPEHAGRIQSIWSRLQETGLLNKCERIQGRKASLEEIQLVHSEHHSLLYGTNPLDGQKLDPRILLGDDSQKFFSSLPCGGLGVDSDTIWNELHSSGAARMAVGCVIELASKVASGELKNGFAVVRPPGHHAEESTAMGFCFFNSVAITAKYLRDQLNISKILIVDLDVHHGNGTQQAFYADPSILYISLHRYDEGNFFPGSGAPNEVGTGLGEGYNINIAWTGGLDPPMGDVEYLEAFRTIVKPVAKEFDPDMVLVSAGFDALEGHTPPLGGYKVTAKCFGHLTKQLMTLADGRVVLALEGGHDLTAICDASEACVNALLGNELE
Protocol: as §1

HDAC3 = HDAC3 (Homo sapiens, UniProt O15379); experiment: In vitro HDAC activity assay (Reaction Biology); type: biochemical; conditions: cell-free; read-out: IC50 values of HDAC8 inhibitors, HDAC3
HDAC3, sequence (O15379 3-316 limits assumed): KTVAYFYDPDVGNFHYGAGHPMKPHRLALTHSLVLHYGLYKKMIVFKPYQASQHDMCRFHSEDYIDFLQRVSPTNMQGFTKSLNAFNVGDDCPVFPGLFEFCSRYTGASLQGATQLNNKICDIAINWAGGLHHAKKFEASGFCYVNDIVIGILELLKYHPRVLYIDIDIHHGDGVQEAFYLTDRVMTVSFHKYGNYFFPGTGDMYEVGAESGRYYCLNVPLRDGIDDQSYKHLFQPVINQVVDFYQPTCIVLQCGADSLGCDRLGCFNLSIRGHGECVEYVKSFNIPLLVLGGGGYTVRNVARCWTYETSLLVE
HDAC3, sequence (Q9Y618 395-489 partner limits assumed): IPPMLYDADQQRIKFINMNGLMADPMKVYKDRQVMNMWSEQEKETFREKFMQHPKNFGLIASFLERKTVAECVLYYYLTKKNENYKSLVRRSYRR
Protocol: as §1

HDAC10 = molecular target: T1, HDAC10 (Homo sapiens, UniProt Q969S8); experiment: In vitro HDAC activity assay (Reaction Biology); type: biochemical; conditions: cell-free; read-out: IC50 values of HDAC8 inhibitors, HDAC10
T1 sequence (Q969S8 1-323 limits assumed): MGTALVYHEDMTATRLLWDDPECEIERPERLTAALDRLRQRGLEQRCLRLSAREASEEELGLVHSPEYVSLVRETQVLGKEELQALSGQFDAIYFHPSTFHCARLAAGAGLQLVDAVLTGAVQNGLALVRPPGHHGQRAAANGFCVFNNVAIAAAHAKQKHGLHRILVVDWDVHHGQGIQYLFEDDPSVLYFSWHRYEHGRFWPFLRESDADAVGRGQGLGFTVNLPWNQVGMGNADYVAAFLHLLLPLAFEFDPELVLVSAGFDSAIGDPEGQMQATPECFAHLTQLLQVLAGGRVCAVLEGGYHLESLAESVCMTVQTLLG
Protocol: as §1

HDAC11 = molecular target: T2, HDAC11 (Homo sapiens, UniProt Q96DB2); experiment: In vitro HDAC activity assay (Reaction Biology); type: biochemical; conditions: cell-free; read-out: IC50 values of HDAC8 inhibitors, HDAC11
T2 sequence (Q96DB2 14-326 limits assumed): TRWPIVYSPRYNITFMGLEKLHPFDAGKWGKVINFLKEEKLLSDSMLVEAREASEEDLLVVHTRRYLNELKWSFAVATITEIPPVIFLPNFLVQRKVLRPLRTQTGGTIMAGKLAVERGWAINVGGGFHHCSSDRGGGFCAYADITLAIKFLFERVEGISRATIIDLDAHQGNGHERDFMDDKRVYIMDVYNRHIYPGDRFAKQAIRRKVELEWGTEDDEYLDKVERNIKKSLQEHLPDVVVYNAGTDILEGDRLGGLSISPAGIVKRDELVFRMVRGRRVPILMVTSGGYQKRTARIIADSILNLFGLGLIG
Protocol: as §1

HDAC8 = molecular target: T3, HDAC8 (Homo sapiens, UniProt Q9BY41); experiment: In vitro HDAC activity assay (Reaction Biology); type: biochemical; conditions: cell-free; read-out: IC50 values of HDAC8 inhibitors, HDAC8
T3 sequence (Q9BY41 14-324 limits assumed): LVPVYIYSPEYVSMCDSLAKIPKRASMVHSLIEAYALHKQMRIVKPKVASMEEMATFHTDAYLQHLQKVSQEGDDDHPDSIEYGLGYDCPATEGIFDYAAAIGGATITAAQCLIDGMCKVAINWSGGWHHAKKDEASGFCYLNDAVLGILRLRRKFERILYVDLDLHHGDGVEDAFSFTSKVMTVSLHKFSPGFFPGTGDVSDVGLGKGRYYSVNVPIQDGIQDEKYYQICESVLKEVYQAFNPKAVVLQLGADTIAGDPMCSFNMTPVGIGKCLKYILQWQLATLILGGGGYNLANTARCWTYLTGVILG
Protocol: as §1

HDAC7 = molecular target: T4, HDAC7 (Homo sapiens, UniProt Q8WUI4); experiment: In vitro HDAC activity assay (Reaction Biology); type: biochemical; conditions: cell-free; read-out: IC50 values of HDAC8 inhibitors, HDAC7
T4 sequence (Q8WUI4 512-865 limits assumed): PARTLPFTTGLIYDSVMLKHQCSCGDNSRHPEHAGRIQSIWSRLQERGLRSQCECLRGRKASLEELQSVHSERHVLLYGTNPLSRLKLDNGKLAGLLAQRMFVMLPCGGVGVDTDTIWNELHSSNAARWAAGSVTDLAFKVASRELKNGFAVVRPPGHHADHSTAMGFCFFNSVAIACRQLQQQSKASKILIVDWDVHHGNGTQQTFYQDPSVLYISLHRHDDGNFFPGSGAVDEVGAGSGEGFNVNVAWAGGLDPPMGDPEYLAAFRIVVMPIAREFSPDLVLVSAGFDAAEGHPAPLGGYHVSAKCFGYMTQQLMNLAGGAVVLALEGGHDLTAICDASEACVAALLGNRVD
Protocol: as §1

HDAC1 = HDAC1 (Homo sapiens, UniProt Q13547); experiment: In vitro HDAC activity assay (Reaction Biology); type: biochemical; conditions: cell-free; symbol; read-out: IC50 values of HDAC8 inhibitors, HDAC1
HDAC1, sequence (Q13547 9-321 limits assumed): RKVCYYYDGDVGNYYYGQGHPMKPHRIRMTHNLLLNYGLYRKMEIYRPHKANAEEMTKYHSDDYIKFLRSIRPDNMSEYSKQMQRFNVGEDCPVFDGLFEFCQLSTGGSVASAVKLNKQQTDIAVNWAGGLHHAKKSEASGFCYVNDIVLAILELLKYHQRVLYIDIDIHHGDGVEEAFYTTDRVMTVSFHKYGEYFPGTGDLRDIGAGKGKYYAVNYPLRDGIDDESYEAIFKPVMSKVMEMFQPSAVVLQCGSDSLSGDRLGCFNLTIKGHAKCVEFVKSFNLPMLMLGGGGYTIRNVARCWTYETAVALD

[1] = Determination of inhibitor plasma half-life; type: in vivo, mouse
[2] = system: neuroblastoma cell culture; experiment: Intracellular whole lysine acetylation via FACS; type: cell-based, human
Protocol: Cells were collected, washed with PBS and fixed with 2% paraformaldehyde for 15 min at room temperature (RT). Cells were permeabilized by incubation with 50 μg/ml digitonin for 6 min at RT. Cells were incubated with primary antibody overnight at 4 °C. After staining with Cy3-conjugated anti-rabbit antibody, cells were analyzed by FACS using CellQuest software (BD Biosciences, San Jose, CA, USA). The following primary antibodies were used: anti-acetylated lysine (polyclonal; Cell Signaling) and anti-neurofilament-M (clone EP2460; Epitomics, Burlingame, CA, USA).

[3] = working concentrations: 40 μM Cpd2, 4 μM PCI-34051 and PCI-48000

## O=C(NO)c1cccc2ccccc12 [Cpd2, 1-naphthohydroxamic acid]
BE(2)-C cells; increasing concentrations far above IC50 values (up to 200 μM Cpd2, 100 μM PCI-34051)
  tubulin acetylation (HDAC6 off-target activity): induced tubulin acetylation
BE(2)-C cells; [3]
  SMC3 acetylation (HDAC8 substrate): increase in acetylation level
  histone 4 acetylation (HDAC1-3 substrate): absence of HDAC1-3 substrate acetylation
  tubulin acetylation (HDAC6 substrate): absence of HDAC6 substrate acetylation
HDAC5
  IC50: > 75.6 µM
HDAC2
  IC50: > 75.6 µM
HDAC4
  IC50: > 75.6 µM
HDAC9
  IC50: > 75.6 µM
HDAC3
  IC50: > 75.6 µM
HDAC10
  IC50: > 75.6 µM
HDAC11
  IC50: > 75.6 µM
HDAC8
  IC50: 34 µM and 33.7 µM
HDAC7
  IC50: > 75.6 µM
HDAC1
  IC50: > 75.6 µM
[1]; NMRI Foxn1 nude, mouse, plasma, ip, 100 mg/kg, intraperitoneal 100 mg/kg, NMRI Foxn1 nude mice, read-out: half-life in blood plasma
  half-life: ~15 min
[1]; intraperitoneal, single dose of 100 mg/kg, mice
  plasma peak concentration: ~ 30 μM
[2]; 20µM, solvent 34.4, second experiment
  whole acetyl-lysine mean fluorescent values (Blank-corrected): 56.9
[2]; 40µM, solvent 24.7, IMR-32 cells, 24 h per Figure 1c
  whole acetyl-lysine mean fluorescent values (Blank-corrected): 36.9
